Measured values as given in article PMC10620772, “Design, synthesis, and biological evaluation of new pyrimidine-5-carbonitrile derivatives as novel anti-cancer, dual EGFR^WT/COX-2 inhibitors with docking studies” (RSC Advances, 2023).

What was measured:
Assay in all cases: NCI60 antitumor screening
Assay type in all cases: cell-based, human
HCC-2998 = system: HCC-2998
OVCAR-3 = system: OVCAR-3
UACC-62 = system: UACC-62
M14 = system: M14
HT29 = system: HT29
HS 578T = system: HS 578T
SK-MEL-28 = details: Homo sapiens; 10 μM single dose; SK-MEL-28 (melanoma); read-out: growth inhibition percent (GI%)
NCI-H322M = system: NCI-H322M
IGROV1 = system: IGROV1
EKVX = system: EKVX
PC-3 = system: PC-3
BT-549 = system: BT-549
UO-31 = system: UO-31
HCT-116 = system: HCT-116
SN12C = system: SN12C
HCT-15 = system: HCT-15
OVCAR-4 = system: OVCAR-4
SF-295 = details: Homo sapiens, SF-295, five-dose
[1] = Homo sapiens, NCI-H322M, five-dose
[2] = Homo sapiens, OVCAR-4, five-dose

`N#Cc1c(-c2ccc(F)cc2)nc(SCc2ccc(F)cc2)nc1N1CCNCC1` [4f, 2-((4-Fluorobenzyl)thio)-4-(4-fluorophenyl)-6-(piperazin-1-yl) pyrimidine-5-carbonitrile] was tested, and the GI50 (HCC-2998; Homo sapiens, HCC 2998, five-dose) was 2.53 µM, the CC50 (HCC-2998; Homo sapiens, HCC 2998, five-dose, read-out: LC50 (the source's name)) was 6.27 µM and the inhibition at 10 µM (HCC-2998; Homo sapiens, 10 μM single dose, HCC-2998 (colon cancer), read-out: growth inhibition percent (GI%)) was over 100%. It also gave a TGI (HCC-2998; five-dose) of 3.22 µM, a GI50 (OVCAR-3; Homo sapiens, OVCAR-3, five-dose) of 15.5 µM and a CC50 (OVCAR-3; Homo sapiens, OVCAR-3, five-dose, read-out: LC50 (the source's name)) of 61.2 µM. It also gave an inhibition at 10 µM (OVCAR-3; Homo sapiens, 10 μM single dose, OVCAR-3 (ovarian cancer), read-out: growth inhibition percent (GI%)) of over 100%, a TGI (OVCAR-3; five-dose) of 30.80 µM and a GI50 (UACC-62; Homo sapiens, UACC-62, five-dose) of 15.9 µM. The CC50 (UACC-62; Homo sapiens, UACC-62, five-dose, read-out: LC50 (the source's name)) was 56.2 µM, the inhibition at 10 µM (UACC-62; Homo sapiens, 10 μM single dose, UACC-62 (melanoma), read-out: growth inhibition percent (GI%)) was over 100% and the TGI (UACC-62; five-dose) was 29.90 µM. The GI50 (M14; Homo sapiens, M14, five-dose) was 13.6 µM, the CC50 (M14; Homo sapiens, M14, five-dose, read-out: LC50 (the source's name)) was 52.9 µM and the inhibition at 10 µM (M14; Homo sapiens, 10 μM single dose, M14 (melanoma), read-out: growth inhibition percent (GI%)) was over 100%. The TGI (M14; five-dose) was 26.80 µM, the inhibition at 10 µM (HT29; Homo sapiens, HT-29, 10 μM single dose, HT29 (colon cancer), read-out: growth inhibition percent (GI%)) was over 100% and the GI50 (HT29; Homo sapiens, HT-29, five-dose) was 4.87 µM. It also gave a CC50 (HT29; Homo sapiens, HT-29, five-dose, read-out: LC50 (the source's name)) of 51.7 µM, a TGI (HT29; five-dose) of 17.30 µM and a GI50 (HS 578T; Homo sapiens, Hs-578T, five-dose) of 15.6 µM. For the same compound, the CC50 (HS 578T; Homo sapiens, Hs-578T, five-dose, read-out: LC50 (the source's name)) was 77 µM, the inhibition at 10 µM (HS 578T; Homo sapiens, 10 μM single dose, HS 578T (breast cancer), read-out: growth inhibition percent (GI%)) was over 100% and the TGI (HS 578T; five-dose) was 34.60 µM. For the same compound, the inhibition at 10 µM (SK-MEL-28) was over 100%, the GI50 (NCI-H322M; [1]) was 14 µM and the LC50 (50% lethal concentration) (NCI-H322M; [1]) was 52.8 µM. For the same compound, the inhibition at 10 µM (NCI-H322M; Homo sapiens, 10 μM single dose, NCI-H322M (non-small cell lung cancer), read-out: growth inhibition percent (GI%)) was 64%, the TGI (NCI-H322M; five-dose) was 27.20 µM and the inhibition at 10 µM (IGROV1; Homo sapiens, IGROV-1, 10 μM single dose, IGROV1 (ovarian cancer), read-out: growth inhibition percent (GI%)) was over 100%. The GI50 (IGROV1; Homo sapiens, IGROV-1, five-dose) was 15.6 µM, the CC50 (IGROV1; Homo sapiens, IGROV-1, five-dose, read-out: LC50 (the source's name)) was 56.8 µM and the TGI (IGROV1; five-dose) was 29.80 µM. It also gave a GI% (EKVX; 10 μM one-dose) of 98.71%, a GI50 (EKVX; Homo sapiens, EKVX, five-dose) of 13.1 µM and an LC50 (EKVX; Homo sapiens, EKVX, five-dose) of 52.9 µM. For the same compound, the inhibition at 10 µM (EKVX; Homo sapiens, 10 μM single dose, EKVX (non-small cell lung cancer), read-out: growth inhibition percent (GI%)) was 98.7%, the TGI (EKVX; five-dose) was 26.40 µM and the GI% (PC-3; 10 μM one-dose) was 88.74%. For the same compound, the GI50 (PC-3; Homo sapiens, PC-3, five-dose) was 12.5 µM, the CC50 (PC-3; Homo sapiens, PC-3, five-dose, read-out: LC50 (the source's name)) was 61.3 µM and the inhibition at 10 µM (PC-3; Homo sapiens, 10 μM single dose, PC-3 (prostate cancer), read-out: growth inhibition percent (GI%)) was 88.7%. The TGI (PC-3; five-dose) was 27.70 µM, the GI50 (BT-549; Homo sapiens, BT-549, five-dose) was 10.7 µM and the CC50 (BT-549; Homo sapiens, BT-549, five-dose, read-out: LC50 (the source's name)) was 49.4 µM. It also gave an inhibition at 10 µM (BT-549; Homo sapiens, 10 μM single dose, BT-549 (breast cancer), read-out: growth inhibition percent (GI%)) of 17.3%, a TGI (BT-549; five-dose) of 23.00 µM and a GI% (UO-31; 10 μM one-dose) of 91.74%. For the same compound, the inhibition at 10 µM (UO-31; Homo sapiens, 10 μM single dose, UO-31 (renal cancer), read-out: growth inhibition percent (GI%)) was 91.7%, the GI50 (HCT-116; Homo sapiens, HCT-116, five-dose) was 4.15 µM and the CC50 (HCT-116; Homo sapiens, HCT-116, five-dose, read-out: LC50 (the source's name)) was 42.8 µM. The inhibition at 10 µM (HCT-116; Homo sapiens, 10 μM single dose, HCT-116 (colon cancer), read-out: growth inhibition percent (GI%)) was over 100%, the TGI (HCT-116; five-dose) was 15.60 µM and the GI50 (SN12C; Homo sapiens, SN12C, five-dose) was 15.3 µM. It also gave a CC50 (SN12C; Homo sapiens, SN12C, five-dose, read-out: LC50 (the source's name)) of 55.2 µM, an inhibition at 10 µM (SN12C; Homo sapiens, 10 μM single dose, SN12C (renal cancer), read-out: growth inhibition percent (GI%)) of over 100% and a TGI (SN12C; five-dose) of 29.00 µM. The GI50 (HCT-15; Homo sapiens, HCT-15, five-dose) was 11.7 µM, the CC50 (HCT-15; Homo sapiens, HCT-15, five-dose, read-out: LC50 (the source's name)) was 51.8 µM and the inhibition at 10 µM (HCT-15; Homo sapiens, 10 μM single dose, HCT-15 (colon cancer), read-out: growth inhibition percent (GI%)) was over 100%. For the same compound, the TGI (HCT-15; five-dose) was 24.60 µM, the GI50 (OVCAR-4; [2]) was 16.5 µM and the LC50 (lethal concentration, 50% cell kill) (OVCAR-4; [2]) was 68.7 µM. The inhibition at 10 µM (OVCAR-4; Homo sapiens, 10 μM single dose, OVCAR-4 (ovarian cancer), read-out: growth inhibition percent (GI%)) was over 100%, the TGI (OVCAR-4; five-dose) was 33.60 µM and the GI50 (SF-295) was 16.6 µM. For the same compound, the CC50 (SF-295; read-out: LC50 (the source's name)) was 57.5 µM.
